# Assay results from publication PMC9318816, “Differential Effects of a Novel Opioid Ligand UTA1003 on Antinociceptive Tolerance and Motor Behaviour” (Pharmaceuticals, 2022).
# Where two headings read alike, the source gives them in different places. Non-standard residues stand in square brackets, D forms with d. Residues, ends and D or L forms follow the SMILES beside them. *: point of attachment. Dmt = Cc1cc(O)cc(C)c1C[C@H](N)C(=O)O; Pip = O=C(O)[C@@H]1CCCCN1; NHBn = c1ccc(CN*)cc1
# Legend:
# [1] = target: T1, human MOP receptor (Homo sapiens, UniProt P35372); experiment: cAMP assay in CHO-MOP cells (agonism); assay type: cell-based
# T1 construct: expressed in transfected cells; host or cells: CHO (CHO-MOP, G418 selection)
# T1 sequence (P35372 whole entry): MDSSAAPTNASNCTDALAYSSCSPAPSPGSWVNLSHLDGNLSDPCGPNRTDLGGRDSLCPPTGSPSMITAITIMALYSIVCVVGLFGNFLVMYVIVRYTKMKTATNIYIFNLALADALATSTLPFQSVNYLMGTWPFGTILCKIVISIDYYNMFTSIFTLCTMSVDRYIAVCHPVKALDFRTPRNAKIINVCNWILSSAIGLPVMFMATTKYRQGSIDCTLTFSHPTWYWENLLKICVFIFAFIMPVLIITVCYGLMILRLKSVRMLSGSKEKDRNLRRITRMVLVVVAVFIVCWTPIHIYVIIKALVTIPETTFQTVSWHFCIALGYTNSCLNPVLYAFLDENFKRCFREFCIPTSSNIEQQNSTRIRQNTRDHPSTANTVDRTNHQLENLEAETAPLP
# [2] = Solubility (subjective); assay type: physicochemical; conditions: detailed solubility experiments not performed
# [3] = target: T2, human DOP receptor (Homo sapiens, UniProt P41143); experiment: Antagonism of DPDPE effect in cAMP assay, CHO-DOP cells; assay type: cell-based
# T2 construct: expressed in transfected cells; host or cells: CHO (CHO-DOP, G418 selection)
# T2 sequence (P41143 whole entry): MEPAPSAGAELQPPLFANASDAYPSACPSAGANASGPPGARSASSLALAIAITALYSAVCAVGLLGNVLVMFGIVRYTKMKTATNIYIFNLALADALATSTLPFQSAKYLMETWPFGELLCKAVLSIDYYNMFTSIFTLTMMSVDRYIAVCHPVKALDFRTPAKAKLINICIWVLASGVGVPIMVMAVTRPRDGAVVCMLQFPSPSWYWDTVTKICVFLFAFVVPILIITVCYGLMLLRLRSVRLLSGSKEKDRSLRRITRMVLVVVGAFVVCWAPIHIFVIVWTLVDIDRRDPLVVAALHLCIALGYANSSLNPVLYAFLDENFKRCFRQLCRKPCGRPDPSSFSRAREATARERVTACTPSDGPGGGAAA
# Procedure: The antagonist effect of UTA1003 was calculated as described in previous studies. […] (Figure 3E, Table 1).
# For a direct comparison between the UTA ligands, standard compounds, and for the concentration-response curves, the pharmacological effect was calculated as % of inhibition of forskolin-induced cAMP production, and the values were used for statistical analysis.
# [4] = target: T3, human NOP receptor (Homo sapiens, UniProt P41146); experiment: cAMP assay in CHO-NOP cells (agonism); assay type: cell-based
# T3 construct: expressed in transfected cells; host or cells: CHO (CHO-NOP, G418 and hygromycin B selection)
# T3 sequence (P41146 whole entry): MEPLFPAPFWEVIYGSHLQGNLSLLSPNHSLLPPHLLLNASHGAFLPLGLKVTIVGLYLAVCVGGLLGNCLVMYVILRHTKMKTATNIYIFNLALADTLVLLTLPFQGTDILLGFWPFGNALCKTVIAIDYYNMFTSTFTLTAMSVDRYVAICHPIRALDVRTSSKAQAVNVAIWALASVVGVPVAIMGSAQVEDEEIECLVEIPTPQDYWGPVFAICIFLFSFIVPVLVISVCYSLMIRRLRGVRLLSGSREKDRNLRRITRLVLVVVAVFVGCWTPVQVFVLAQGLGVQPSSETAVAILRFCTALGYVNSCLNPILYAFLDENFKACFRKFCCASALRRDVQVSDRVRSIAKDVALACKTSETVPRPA
# [5] = tested on: Sprague Dawley rats; experiment: Observation of physiological or behavioural toxicity after subcutaneous administration; conditions: for Physiological or behavioural toxicity: subcutaneous administration
# [6] = target: T2, human DOP receptor; experiment: cAMP assay in CHO-DOP cells (agonism); assay type: cell-based; conditions: for Inhibition of forskolin-stimulated cAMP production: 100 µM ligand, CHO-DOP cells, reference DPDPE
# [7] = tested on: rat hippocampus; design: method as in earlier work; conditions: approximately five times lower dose; cited from earlier work
# [8] = tested on: untransfected Chinese hamster ovary (CHO-WT) cells; experiment: cAMP assay: inhibition of forskolin-stimulated cAMP in untransfected CHO cells; assay type: cell-based; conditions: 100 µM ligand, 1 µM forskolin
# [9] = target: T4, human KOP receptor (Homo sapiens, UniProt P41145); experiment: cAMP assay in CHO-KOP cells (agonism); assay type: cell-based
# T4 construct: expressed in transfected cells; host or cells: CHO (CHO-KOP, G418 selection)
# T4 sequence (P41145 whole entry): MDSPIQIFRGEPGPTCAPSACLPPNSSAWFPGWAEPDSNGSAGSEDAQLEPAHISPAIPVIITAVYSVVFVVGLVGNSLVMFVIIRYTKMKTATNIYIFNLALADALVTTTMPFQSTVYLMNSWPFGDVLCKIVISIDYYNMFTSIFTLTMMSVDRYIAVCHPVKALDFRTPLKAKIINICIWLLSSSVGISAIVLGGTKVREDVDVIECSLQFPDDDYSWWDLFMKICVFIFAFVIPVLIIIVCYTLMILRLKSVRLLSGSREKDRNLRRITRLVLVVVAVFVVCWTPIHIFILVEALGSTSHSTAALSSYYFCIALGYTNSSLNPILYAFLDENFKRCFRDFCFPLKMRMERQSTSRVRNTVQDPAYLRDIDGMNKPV
# [10] = tested on: Sprague Dawley rats; experiment: Open-field motor behaviour
# [11] = tested on: Sprague Dawley rats; experiment: Hot plate antinociception assay; conditions: repeated s.c. twice daily treatment; days 2, 5 and 8
# [12] = target: KOP receptor; design: method as in PMID 22194444; conditions: partial agonist; cited from earlier work
# [13] = target: DOP receptor; conditions: cited from earlier work
# [14] = target: NOP receptor; design: method as in PMID 22194444; conditions: partial agonist; cited from earlier work
molecule,measurement,setting,value
"C[C@@H](NC(=O)[C@@H](N)Cc1ccc(O)cc1)C(=O)NCC(=O)N(C)[C@@H](Cc1ccccc1)C(=O)NCCO [DAMGO, reference compound]",Emax,"[1]; CHO-MOP, inhibition of forskolin-stimulated cAMP, read-out: Emax (%)",88.8%
Cc1cc(O)cc(C)c1C[C@H](N)C(=O)N1CCCC[C@H]1C(=O)NCC(=O)NCc1ccccc1 [UTA1003] (H-[Dmt]-[Pip]-Gly-NHBn),Solubility compared to UFP-505,[2],subjectively displayed better solubility
same,Emax,[1],82.4%
same,EC50,"[1]; EC50, CHO-MOP, 1 µM forskolin",6.89 nM
same,EC50,"[1]; pEC50, CHO-MOP",6.92 nM
same,Kb,"[3]; CHO-DOP, read-out: DOP receptor antagonism pKb (converted)",47.9 nM
same,Kd,[3]; read-out: Antagonist Effect (Kd),47.8 nM
same,Emax,[4],28.3%
same,EC50,"[4]; EC50, CHO-NOP, 5 µM forskolin",1790 nM
same,EC50,"[4]; pEC50, CHO-NOP",1780 nM
same,Itching,[5]; repeated dosing,absent
same,Physiological or behavioural toxicity,[5],did not observe any physiological or behavioural toxicity
same,Emax,[6],28.2%
same,Inhibition of forskolin-stimulated cAMP production,[6],significantly lower specificity than DPDPE
same,EC50,"[6]; EC50, CHO-DOP, 1 µM forskolin",26.6 nM
same,EC50,"[6]; pEC50, CHO-DOP",26.3 nM
same,Oxidative damage in the rat hippocampus,[7],reduced oxidative damage in the rat hippocampus
same,Inhibition of forskolin-stimulated cAMP production,[8],not observed
same,Emax,[9],94.5%
same,EC50,[9]; EC50,30.9 nM
same,EC50,[9]; pEC50,30.9 nM
same,"Rearing time and rearing numbers, open field","[10]; acute s.c., 30 min post administration",slightly reduced rearing time and rearing numbers than vehicle
same,"Total rotational activities, open field","[10]; acute s.c., 120 min observation",remained unaffected
same,"Moving distance, open field","[10]; acute s.c., UTA1003 24.6 mg/kg",unaffected
same,"Moving time, open field","[10]; acute s.c., UTA1003 24.6 mg/kg, 30 min post administration",significantly reduced moving time compared to the vehicle group
same,"Motor behaviour after repeated treatment, open field","[10]; s.c. twice daily over 8 days, 30 min post administration",only a mild but significant suppression of motor activity on the first day
CN1CC[C@]23c4c5ccc(O)c4O[C@H]2[C@@H](O)C=C[C@H]3[C@H]1C5 [morphine],"Antinociception, morphine versus UTA1003/morphine at same day, hot plate",[11],significantly lower than those of the UTA1003/morphine co-treatment on day 2
H-Dmt-Tic-Gly-NH-Bzl [UFP-505],Physiological or behavioural toxicity,[5],did not observe any physiological or behavioural toxicity
same,pKi,[12],6.29
same,DOP receptor antagonism pKb,[13]; ref 37,9.81
same,DOP receptor antagonism pKb,[13]; ref 60,10.50
same,Inhibition of forskolin-stimulated cAMP production,[6],significantly lower specificity than DPDPE
same,pKi,[14],5.86
same,Inhibition of forskolin-stimulated cAMP production,[8],not observed
